“And” between values parts separate entries of the source, which are not always exact repeats. Equal values may be shown once.
Columns and labels:
[1] = system: CT26 colon carcinoma tumor; experiment: Example 7: SYN-115 dose range as single agent in the CT26 tumor mouse model (tumor area, survival); format: in vivo, BALB/c mice; set-up: key: tumor area in mm^2 (width × length)
Description: The BALB/c mouse colon carcinoma cell line CT26 was cultured in RPMI supplemented with 10% FCS, GlutaMAX, and penicillin/streptomycin. Tumor cells are periodically verified to be Mycoplasma negative by the Victorian Infectious Diseases References Lab (Melbourne, VIC, Australia) by PCR analysis. 1×10^5 cells were resuspended in PBS and injected s.c. into BALB/c mice in a 100 μL volume. At day 7 tumors were measured and mice were randomized into distinct treatment groups to ensure that each group had tumors of similar size at the onset of treatment. Mice were treated with SYN-115 (Batch 71236AA006) at the indicated dose or vehicle control once-daily via oral gavage on days 7 to 20. To calculate a dose of SYN-115 mouse weight was estimated to be 20 g per mouse. Therefore, 100 mg/kg=2 mg per mouse in 200 μL, which is equivalent to 10 mg/ml. To make up 40 mL, 400 milligrams of SYN-115 was weighed and added into a Falcon tube, then 1 mL of Tween 80 was added and mixed into a paste and then 39 mL of 1% Methyl Cellulose was added. The solution was vortexed and then left on a rotating mixer for at least 2 hours and maintained at 4° C. Tumor measurements were taken 2-3 times per week. Tumor sizes were determined by width * length and mice were culled when tumors reached the ethical limit of 150 mm^2.

[2] = system: B16F10 CD73 melanoma metastases; experiment: Example 8: number of lung tumor metastases in the B16F10 CD73 tumor mouse model; format: in vivo, C57/BL6 mice (A2A-/- or Wild-Type); settings: 100 mg/kg once-daily oral gavage days 0 to 13, counted day 14, Batch 71236AA002
Description: The C57/BL6 mouse melanoma cell line B16F10 CD73 was cultured in DMEM supplemented with 10% FCS, GlutaMAX, and penicillin/streptomycin. Tumor cells are periodically verified to be Mycoplasma negative by the Victorian Infectious Diseases References
Lab (Melbourne, VIC, Australia) by PCR analysis. 2×10^5 cells were resuspended in PBS and injected i.v. into C57/BL6 mice (A2A^−/− or Wild-Type) in a 200 μL volume. At day 14, lungs were excised and the number of metastases counted under the dissecting microscope. Mice were dosed with either SYN-115 (Batch 71236AA002) at 100 mg/kg or vehicle control once-daily via oral gavage on days 0 to 13. To calculate a dose of SYN-115, mouse weight was estimated to be 20 g per mouse. Therefore, 100 mg/kg=2 mg per mouse in 200 μL, which is equivalent to 10 mg/ml. To make up 40 mL 400 milligrams of SYN-115 was weighed and added into a Falcon tube, then 1 mL of Tween 80 added and mixed into a paste and then 39 mL of 1% Methyl Cellulose was added. Solution was vortexed and then left on rotating mixer for at least 2 hours and maintained at 4° C.

[3] = system: B16F10 Cherry melanoma metastases; experiment: Example 10: number of lung tumor metastases in the B16F10 tumor mouse model; format: in vivo, C57/BL6 mice; settings: 100 mg/kg once-daily oral gavage days 0 to 13, counted day 14, Batch 71236AA006
Description: The C57/BL6 mouse melanoma cell line B16F10 Cherry was cultured in DMEM supplemented with 10% FCS, GlutaMAX, and penicillin/streptomycin. Tumor cells are periodically verified to be Mycoplasma negative by the Victorian Infectious Diseases References Lab (Melbourne, VIC, Australia) by PCR analysis. 2×10^5 cells were resuspended in PBS and injected i.v. into C57/BL6 mice in a 200 μL volume. At day 14 lungs were excised and the number of metastases counted under the dissecting microscope. Mice were dosed with either SYN-115 (Batch 71236AA006) at 100 mg/kg or vehicle control once-daily via oral gavage on days 0 to 13. To calculate a dose of SYN-115 mouse weight was estimated to be 20 g per mouse. Therefore, 100 mg/kg=2 mg per mouse in 200 μL, which is equivalent to 10 mg/ml. To make up 40 mL, 400 milligrams of SYN-115 was weighed and added into a Falcon tube, then 1 mL of Tween 80 was added and mixed into a paste and then 39 mL of 1% Methyl Cellulose was added. Solution was vortexed and then left on a rotating mixer for at least 2 hours and maintained at 4° C.

SMILES: COc1ccc(N2CCOCC2)c2sc(NC(=O)N3CCC(C)(O)CC3)nc12 [SYN-115, 4-hydroxy-4-methyl-piperidine-1-carboxylic acid (4-methoxy-7-morpholin-4-yl-benzothiazol-2-yl)-amide]
- Tumor area, individual mice ([1]; SYN-115 10 mg/kg, Day 0, 10 mg/kg): 4.86 and 6.44 and 7.56 and 8.37 and 8.84 and 11.2
- Tumor area, individual mice ([1]; SYN-115 10 mg/kg, Day 2, 10 mg/kg): 6.16 and 6.75 and 7.36 and 15.2 and 9.45 and 14.06
- Tumor area, individual mice ([1]; SYN-115 10 mg/kg, Day 4, 10 mg/kg): 15.75 and 12.16 and 22.55 and 23.52 and 8.36 and 26.95
- Tumor area, individual mice ([1]; SYN-115 10 mg/kg, Day 7, 10 mg/kg): 20.7 and 14.04 and 41.44 and 34.77 and 6.24 and 46.92
- Tumor area, individual mice ([1]; SYN-115 10 mg/kg, Day 9, 10 mg/kg): 30.53 and 22.09 and 52.08 and 50.37 and 0 and 66.99
- Tumor area, individual mice ([1]; SYN-115 10 mg/kg, Day 11, 10 mg/kg): 44.1 and 31.32 and 70.68 and 66.42 and 0 and 89.24
- Tumor area, individual mice ([1]; SYN-115 10 mg/kg, Day 14, 10 mg/kg): 52.8 and 48.96 and 108.1 and 114.45 and 0 and 125.08
- Tumor area, individual mice ([1]; SYN-115 10 mg/kg, Day 16, 10 mg/kg): 91.44 and 67.86 and 132.84 and 135.42 and 0 and 179.55
- Tumor area, individual mice ([1]; SYN-115 10 mg/kg, Day 18, 10 mg/kg): 136.71 and 100.98 and 202.5 and 119.88 and 0
- Tumor area, individual mice ([1]; SYN-115 10 mg/kg, Day 21, 10 mg/kg): 175.74 and 162 and 160 and 0
- Tumor area, individual mice ([1]; SYN-115 10 mg/kg, Day 25): 0
- Tumor area, individual mice ([1]; SYN-115 10 mg/kg, Day 29): 0
- Tumor area, individual mice ([1]; SYN-115 10 mg/kg, Day 32): 0
- Tumor area, individual mice ([1]; SYN-115 10 mg/kg, Day 35): 0
- Tumor area, individual mice ([1]; SYN-115 10 mg/kg, Day 37): 0
- Tumor area, individual mice ([1]; SYN-115 30 mg/kg, Day 0, 30 mg/kg): 5 (2×) and 6.24 and 7.56 and 8.7 and 12.48
- Tumor area, individual mice ([1]; SYN-115 30 mg/kg, Day 2, 30 mg/kg): 12.6 (2×) and 8.12 and 9.28 and 12.95 and 8.4
- Tumor area, individual mice ([1]; SYN-115 30 mg/kg, Day 4, 30 mg/kg): 21.6 (2×) and 15.96 and 13.65 and 24.48 and 10.56
- Tumor area, individual mice ([1]; SYN-115 30 mg/kg, Day 7, 30 mg/kg): 42.21 (2×) and 25 and 25.5 and 30.21 and 30.24
- Tumor area, individual mice ([1]; SYN-115 30 mg/kg, Day 9, 30 mg/kg): 50.16 (2×) and 35.4 and 29.68 and 47.61 and 31.9
- Tumor area, individual mice ([1]; SYN-115 30 mg/kg, Day 18, 30 mg/kg): 204.8 (2×) and 114 and 189.23 and 202.86 and 125.4
- Tumor area, individual mice ([1]; SYN-115 30 mg/kg, Day 21, 30 mg/kg): 153.4 and 179.4
- Raw Tumor Measurements ([1]; SYN-115 (1 mg/kg), Day 0, 1 mg/kg): 5.25 and 6.72 and 8.37 and 7.84 and 9.6 and 10.36
- Raw Tumor Measurements ([1]; SYN-115 (1 mg/kg), Day 2, 1 mg/kg): 12.95 and 12.54 and 15.6 and 13.6 and 12.71 and 15.84
- Raw Tumor Measurements ([1]; SYN-115 (1 mg/kg), Day 4, 1 mg/kg): 14.8 and 22.95 and 21 and 24.99 and 20.4 and 24.19
- Raw Tumor Measurements ([1]; SYN-115 (1 mg/kg), Day 16, 1 mg/kg): 144.1 and 103.55 and 103.74 and 155.61
- Raw Tumor Measurements ([1]; SYN-115 (1 mg/kg), Day 18, 1 mg/kg): 208.68 and 167.24 and 138.6
- Raw Tumor Measurements ([1]; SYN-115 (1 mg/kg), Day 21): 173.46
- Raw Tumor Measurements ([1]; SYN-115 (5 mg/kg), Day 0, 5 mg/kg): 4.8 and 7.8 and 7.54 and 8.84
- Raw Tumor Measurements ([1]; SYN-115 (5 mg/kg), Day 2, 5 mg/kg): 13.12 and 11.16 and 13.26 and 10.36
- Raw Tumor Measurements ([1]; SYN-115 (5 mg/kg), Day 4, 5 mg/kg): 20.8 and 11.2 and 18.45 and 19.52
- Raw Tumor Measurements ([1]; SYN-115 (5 mg/kg), Day 25, 5 mg/kg): 163.8 and 83.52
- Raw Tumor Measurements ([1]; SYN-115 (5 mg/kg), Day 29): 101.76
- Raw Tumor Measurements ([1]; SYN-115 (5 mg/kg), Day 32): 124.74
- Raw Tumor Measurements ([1]; SYN-115 (5 mg/kg), Day 35): 146.52
- Raw Tumor Measurements ([1]; SYN-115 (5 mg/kg), Day 37): 161.59
- Number of Tumor Metastases (lung), individual mice [2]: 21 and 1 (2×) and 5 and 11 and 13 and 28 and 2 and 8
- Number of Tumor Metastases (lung), individual mice ([3]; AC#009 Males): 0 (2×) and 9 and 5 and 16 and 13 and 1
- Number of Tumor Metastases (lung), individual mice ([3]; AC#010 Females): 166 and 38 and 141 and 32 and 137 and 264 and 23 and 226
